Data from patent US20220023306A1, “USE OF A PPAR-DELTA AGONIST IN THE TREATMENT OF FATTY ACID OXIDATION DISORDERS (FAOD)” (Reneo Pharmaceuticals, Inc., priority 2019, published 2022).

Molecular target: T1, hPPARδ (Homo sapiens, UniProt Q03181)
T1 construct: is generated by PCR (PPARδ: aa 128-C-terminus); expressed in transfected cells; host or cells: HEK293
T1 sequence (Q03181 128-441 limits assumed): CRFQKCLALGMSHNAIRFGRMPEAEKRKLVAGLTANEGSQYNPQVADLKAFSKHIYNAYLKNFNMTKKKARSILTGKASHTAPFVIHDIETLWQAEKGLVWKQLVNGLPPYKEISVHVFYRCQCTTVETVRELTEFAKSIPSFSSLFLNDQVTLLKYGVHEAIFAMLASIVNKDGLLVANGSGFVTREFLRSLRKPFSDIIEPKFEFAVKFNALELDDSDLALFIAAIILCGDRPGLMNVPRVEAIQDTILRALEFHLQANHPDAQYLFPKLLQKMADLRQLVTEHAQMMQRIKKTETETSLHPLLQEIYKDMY
Assay: PPAR transient transactivation assay, hPPARδ
Format: cell-based
Description: “Activation” herein is defined as the abovementioned downstream response, which in the case of PPAR's is gene transcription. Gene transcription, in some cases, is measured indirectly as downstream production of proteins reflective of the activation of the particular PPAR subtype under study. Alternatively, an artificial reporter construct, in some cases, is employed to study the activation of the individual PPAR's expressed in cells. The ligand binding domain of the particular receptor to be studied, in some embodiments, is fused to the DNA binding domain of a transcription factor, which produces convenient laboratory readouts, such as the yeast GAL4 transcription factor DNA binding domain. The fusion protein, in some cases, is transfected into a laboratory cell line along with a Gal4 enhancer, which effects the expression of the luciferase protein. When such a system is transfected into a laboratory cell line, binding of a receptor agonist to the fusion protein will result in light emission.
The PPAR transient transactivation assay, in some cases, is based on transient transfection into human HEK293 cells of two plasmids encoding a chimeric test protein and a reporter protein respectively. The chimeric test protein, in some cases, is a fusion of the DNA binding domain (DBD) from the yeast GAL4 transcription factor to the ligand binding domain (LBD) of the human PPAR proteins. The PPAR-LBD moiety harbored in addition to the ligand binding pocket also has the native activation domain, allowing the fusion protein to function as a PPAR ligand dependent transcription factor. The GAL4 DBD will direct the chimeric protein to bind only to Gal4 enhancers (of which none existed in HEK293 cells). The reporter plasmid contained a Gal4 enhancer driving the expression of the firefly luciferase protein. After transfection, HEK293 cells expressed the GAL4-DBD-PPAR-LBD fusion protein. […] The amount of luciferase protein is measured by light emission after addition of the appropriate substrate. […]

Cc1cc(OC/C=C(/c2ccc(F)cc2)c2ccc(C#CCN3CCOCC3)cc2)ccc1OCC(=O)O [Compound 1, (E)-[4-[3-(4-Fluorophenyl)-3-[4-[3-(morpholin-4-yl)propynyl]phenyl]allyloxy]-2-methyl-phenoxy]acetic acid]
type of agonism on PPARδ: full agonist | selectivity for PPARδ over PPARα (PPARδ over PPARα, human PPAR subtypes in vitro): at least 100 fold | selectivity for PPARδ over PPARγ (PPARδ over PPARγ, human PPAR subtypes in vitro): at least 400 fold
